Patent publication US20090286720A1, “PHARMACEUTICAL COMPOSITION FOR THE DIAGNOSIS, PREVENTION OR TREATMENT OF A TUMORAL PATHOLOGY COMPRISING AN AGENT MODULATING THE POLYMERIZATION STATE OF ACTIN” (priority 2001, published 2009)
Starred links: 1 amine or outer side, 2 acyl side, 3 side chain; linkers in the order of their positions; H or OH if unused. Non-standard residues stand in square brackets, D forms with d. Residues, ends and D or L forms follow the SMILES beside them. X1 = CC[C@H](C)[C@H](OC(=O)[C@@H](C)[C@@H](CC)N[*:1])C(=O)[*:2]; X2 = C[C@H](N[*:1])C(=O)C(C)(C)C(=O)[*:2]; NMeY = CN[C@@H](Cc1ccc(O)cc1)C(=O)O; NMeL = CN[C@@H](CC(C)C)C(=O)O; NMeV = CN[C@H](C(=O)O)C(C)C

What was measured:
[1] = system: actin; assay: In vitro measurement of actin polymerization by fluorescence anisotropy in EWS-Fli cell extracts; type: biochemical; details: dolastatin 11 added in the polymerization buffer of EWS-Fli cell extracts; deficit versus NIH3T3 extracts; FIG. 11
Description: Cell extracts of NIH3T3 cells or EWS-Fli cells were brought into the presence of actin Alexa 488 in a buffer G ([…] pH 8.1; 170 μM CaCl2; 170 μM DTT; 170 μM ATP). The polymerization reaction was triggered by addition of a buffer P (KCl 51 mM, MgCl2 1 mM and ATP 0.5 mM). Dolastatin (μM) was added to the cell extracts of the EWS-Fli cells at the same time as the buffer P. Polymerization of actin was monitored by fluorescence anisotropy on a Beacon 2000. The results obtained are illustrated in FIG. 11.

[2] = system: EWS-Fli cells; assay: Morphological modification of EWS-Fli cells (actin filaments stained with phalloidin-FITC); type: cell-based, murine; details: FIG. 12
Description: The cells (5×10^3) were cultured on glass slides 10 mm in diameter and kept in culture for 24 hours. After fixation (3% paraformaldehyde) and permeabilization (0.2% TritonX100), the actin filaments of the cells were immunostained by phalloidin coupled to FITC. Untreated NIH3T3; NIH3T3 transfected by EWS-Fli (EF); EF incubated in the presence of 10 μM or 100 μM of jasplakinolide; EF incubated with 10 μM or 20 μM of D11 (FIG. 12).

[3] = system: NIH3T3 cells; assay: Morphological modification of NIH3T3 cells (actin filaments stained with phalloidin-FITC); type: cell-based, murine; details: same concentrations (10 or 20 nM); FIG. 12
Description: The cells (5×10^3) were cultured on glass slides 10 mm in diameter and kept in culture for 24 hours. After fixation (3% paraformaldehyde) and permeabilization (0.2% TritonX100), the actin filaments of the cells were immunostained by phalloidin coupled to FITC. […]

[4] = system: NIH3T3 cells; assay: Toxicity of dolastatin-11 by MTT test on NIH3T3 cells; type: cell-based, murine; details: low concentrations (10 or 20 nM), FIG. 13
Description: (§1) The cells (10^4 per well) were cultured in 96-well plates in the presence of different concentrations of D11. Monitoring of the toxicity of D11 in relation to time was performed by means of an MTT test on the NIH3T3 cells (A) and the EWS-Fli cells (B). The results are illustrated in FIG. 13.

[5] = system: EWS-Fli cells; assay: Toxicity of dolastatin-11 by MTT test on EWS-Fli cells; type: cell-based, murine; details: low concentrations (10 or 20 nM), FIG. 13
Description: as §1

[6] = system: EWS-Fli cells; assay: Development of tumors in the nude mouse after subcutaneous injection of EWS-Fli cells; type: in vivo; details: nude mice, 10 μg/kg intravenous on 5th, 8th and 11th days after EWS-Fli cell injection, measured on 28th day; FIG. 14
Description: Twenty-four hours after irradiation (5 Gy) of the mice, the EWS-Fli cells (10^6) were inoculated via the subcutaneous route. The mice were then separated into two lots, with the first lot corresponding to the untreated mice and the second lot to the mice having received three injections of dolastatin 11 via the intravenous route (10 μg/kg) on the 5th, 8th and 11th days after injection of the EWS-Fli cells. […]

[7] = Survival of the mice (tolerated dose); details: intravenous

CC[C@H](C)[C@@H]1OC(=O)[C@@H](C)[C@@H](CC)NC(=O)[C@H](C)NC(=O)C(C)(C)C(=O)[C@H](C)NC(=O)[C@H](Cc2ccc(OC)cc2)N(C)C(=O)[C@H](C(C)C)N(C)C(=O)CNC(=O)[C@H](CC(C)C)N(C)C(=O)CNC1=O [dolastatin 11] (cyclo(A[X1]G[NMeL]G[NMeV][NMeY](Me)[X2]))
capacity of cell extracts to polymerize actin (fluorescence anisotropy) [1]: can compensate in part for this deficit
effect on the cytoskeleton ([2]; EWS-Fli cells incubated with 10 μM or 20 μM of D11): effect
contact structures between the cells ([2]; EWS-Fli cells, 10 or 20 nM): reestablished the contact structures between the cells
stress fibers and morphology of the cells ([2]; EWS-Fli cells, 10 or 20 nM): restored the stress fibers of the cells with a morphology close to that of NIH3T3 cells
morphology of NIH3T3 cells [3]: did not modify in the least
cytotoxicity or cytostaticity (MTT test) [4]: no cytotoxicity or cytostaticity effects were observed
cytotoxicity or cytostaticity (MTT test) [5]: no cytotoxicity or cytostaticity effects were observed
development of tumors [6]: markedly delayed
dose used (10 μg/kg) relative to the dose not affecting survival of the mice [7]: five times weaker than the dose not affecting survival of the mice

C/C1=C\[C@H](C)C[C@H](C)OC(=O)C[C@H](c2ccc(O)cc2)NC(=O)[C@@H](Cc2c(Br)[nH]c3ccccc23)N(C)C(=O)[C@H](C)NC(=O)[C@@H](C)C1 [jasplakinolide]
effect on the cytoskeleton ([2]; EWS-Fli cells incubated with 10 μM or 100 μM of jasplakinolide): effect
